Measured values published in US7994209B2, “3-phenoxymethylpyrrolidine compounds” (Theravance, Inc., priority 2009, dated 2011).

Assays:
[1] = molecular target: hSERT (Homo sapiens, UniProt P31645); test: fluorescence-based serotonin reuptake inhibition assay (Tsuruda et al. 2010; data indicated by an asterisk); type: cell-based; design: expressed in transfected cells; host or cells: HEK-293; details: fluorescence-based assay (values with asterisk), read-out: SERT pIC50 (converted)
[2] = molecular target: hNET (Homo sapiens, UniProt P23975); test: fluorescence-based norepinephrine reuptake inhibition assay (Tsuruda et al. 2010; data indicated by an asterisk); type: cell-based; design: expressed in transfected cells; host or cells: HEK-293; details: norepinephrine reuptake inhibition, fluorescence-based assay (values with asterisk); read-out: NET pIC50 (converted)
Sequence of hNET (P23975 whole entry): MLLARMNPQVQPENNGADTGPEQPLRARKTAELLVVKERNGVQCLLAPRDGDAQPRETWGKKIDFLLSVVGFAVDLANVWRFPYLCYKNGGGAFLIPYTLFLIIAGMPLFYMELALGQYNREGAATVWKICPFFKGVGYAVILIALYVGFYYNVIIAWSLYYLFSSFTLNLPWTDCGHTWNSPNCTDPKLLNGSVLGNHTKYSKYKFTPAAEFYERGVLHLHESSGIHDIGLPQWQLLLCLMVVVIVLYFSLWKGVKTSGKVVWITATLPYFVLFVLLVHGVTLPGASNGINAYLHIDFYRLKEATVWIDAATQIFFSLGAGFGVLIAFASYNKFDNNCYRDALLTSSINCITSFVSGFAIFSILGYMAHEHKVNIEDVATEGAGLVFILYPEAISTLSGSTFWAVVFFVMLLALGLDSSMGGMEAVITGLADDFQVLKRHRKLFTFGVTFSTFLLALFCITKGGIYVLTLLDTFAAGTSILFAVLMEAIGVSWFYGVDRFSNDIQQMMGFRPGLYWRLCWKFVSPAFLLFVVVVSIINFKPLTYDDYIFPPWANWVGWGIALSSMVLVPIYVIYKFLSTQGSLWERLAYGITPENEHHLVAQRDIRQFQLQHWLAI

Sequence of hSERT (P31645 whole entry): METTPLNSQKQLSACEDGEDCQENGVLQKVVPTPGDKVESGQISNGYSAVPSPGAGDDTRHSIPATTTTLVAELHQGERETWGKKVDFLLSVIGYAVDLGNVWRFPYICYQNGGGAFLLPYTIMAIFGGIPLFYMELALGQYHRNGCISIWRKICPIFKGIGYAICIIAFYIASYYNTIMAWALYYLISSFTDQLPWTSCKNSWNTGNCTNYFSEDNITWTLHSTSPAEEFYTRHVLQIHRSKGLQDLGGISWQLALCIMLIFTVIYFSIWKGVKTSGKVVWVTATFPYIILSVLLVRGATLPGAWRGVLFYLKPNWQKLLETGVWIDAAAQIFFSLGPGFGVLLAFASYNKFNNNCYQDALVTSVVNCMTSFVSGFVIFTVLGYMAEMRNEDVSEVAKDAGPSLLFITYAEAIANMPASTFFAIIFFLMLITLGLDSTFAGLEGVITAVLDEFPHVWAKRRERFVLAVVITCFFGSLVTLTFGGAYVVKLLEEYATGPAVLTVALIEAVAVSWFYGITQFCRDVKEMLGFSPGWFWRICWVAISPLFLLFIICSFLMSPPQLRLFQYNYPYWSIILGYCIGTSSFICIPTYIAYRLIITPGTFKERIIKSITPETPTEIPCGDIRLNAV

| Structure (SMILES) | IC50 [1] [nM] | IC50 [2] [nM] |
| --- | --- | --- |
| CC[C@H](Oc1cccc(Cl)c1C)[C@H]1CCNC1 [Example 2-64, (S)-3-[(S)-1-(3-Chloro-2-methylphenoxy)propyl]pyrrolidine] | ≤ 10 | ≤ 10 |
| CC[C@@H](Oc1cccc(Cl)c1C)[C@H]1CCNC1 [Example 2-65, (S)-3-[(R)-1-(3-Chloro-2-methylphenoxy)propyl]pyrrolidine] | ≤ 10 | ≤ 10 |
| CC[C@@H](Oc1cccc(Cl)c1C(F)(F)F)[C@H]1CCNC1 [Example 2-74, (S)-3-[(R)-1-(3-Chloro-2-trifluoromethylphenoxy)propyl]pyrrolidine] | ≤ 10 | ≤ 100 |
| CCC[C@@H](Oc1cc(F)cc(Cl)c1)[C@H]1CCNC1 [Example 4-10, (S)-3-[(R)-1-(3-Chloro-5-fluorophenoxy)butyl]pyrrolidine] | ≤ 100 | ≤ 10 |
| CCC[C@H](Oc1cc(F)cc(Cl)c1)[C@H]1CCNC1 [Example 4-11, (S)-3-[(S)-1-(3-Chloro-5-fluorophenoxy)butyl]pyrrolidine] | ≤ 100 | ≤ 10 |
| CCC[C@@H](Oc1ccc(Cl)c(Cl)c1)[C@@H]1CCNC1 [Example 4-14, (R)-3-[(R)-1-(3,4-Dichlorophenoxy)butyl]pyrrolidine] | ≤ 10 | ≤ 100 |
| CCC[C@@H](Oc1ccc(Cl)c(C)c1)[C@H]1CCNC1 [Example 4-15, (S)-3-[(R)-1-(4-Chloro-3-methylphenoxy)butyl]pyrrolidine] | ≤ 10 | ≤ 100 |
| CCC[C@H](Oc1ccc(Cl)c(C)c1)[C@H]1CCNC1 [Example 4-16, (S)-3-[(S)-1-(4-Chloro-3-methylphenoxy)butyl]pyrrolidine] | ≤ 10 | ≤ 10 |
| CCC[C@@H](Oc1ccc(Cl)c(F)c1)[C@H]1CCNC1 [Example 4-17, (S)-3-[(R)-1-(4-Chloro-3-fluorophenoxy)butyl]pyrrolidine] | ≤ 10 | ≤ 100 |
| CCC[C@@H](Oc1c(Cl)ccc(Cl)c1Cl)[C@H]1CCNC1 [Example 4-26, (S)-3-[(R)-1-(2,3,6-Trichlorophenoxy)butyl]pyrrolidine] | ≤ 10 | ≤ 10 |
| CCC[C@H](Oc1ccc(Cl)c(F)c1Cl)[C@H]1CCNC1 [Example 4-39, (S)-3-[(S)-1-(2,4-Dichloro-3-fluorophenoxy)butyl]pyrrolidine] | ≤ 10 | ≤ 10 |
| CCC[C@H](Oc1c(F)cc(Cl)cc1Cl)[C@H]1CCNC1 [Example 4-40, (S)-3-[(S)-1-(2,4-Dichloro-6-fluorophenoxy)butyl]pyrrolidine] | ≤ 10 | ≤ 10 |
| CCC[C@H](Oc1c(C)cc(Cl)cc1Cl)[C@H]1CCNC1 [Example 4-41, (S)-3-[(S)-1-(2,4-Dichloro-6-methylphenoxy)butyl]pyrrolidine] | ≤ 10 | ≤ 10 |
| CCC[C@@H](Oc1c(F)ccc(OC)c1Cl)[C@H]1CCNC1 [Example 4-42, (S)-3-[(R)-1-(2-Chloro-6-fluoro-3-methoxyphenoxy)butyl]pyrrolidine] | ≤ 10 | ≤ 10 |
| CCC[C@@H](Oc1cccc(F)c1F)[C@H]1CCNC1 [Example 4-44, (S)-3-[(R)-1-(2,3-Difluorophenoxy)butyl]pyrrolidine] | ≤ 100 | ≤ 10 |
| CCC[C@H](Oc1cccc(F)c1F)[C@H]1CCNC1 [Example 4-45, (S)-3-[(S)-1-(2,3-Difluorophenoxy)butyl]pyrrolidine] | ≤ 100 | ≤ 10 |
| CCC[C@@H](Oc1cccc(Cl)c1F)[C@H]1CCNC1 [Example 4-46, (S)-3-[(R)-1-(3-Chloro-2-fluorophenoxy)butyl]pyrrolidine] | ≤ 100 | ≤ 10 |
| CCC[C@@H](Oc1cccc(Cl)c1F)[C@@H]1CCNC1 [Example 4-47, (R)-3-[(R)-1-(3-Chloro-2-fluorophenoxy)butyl]pyrrolidine] | ≤ 100 | ≤ 10 |
| CCC[C@H](Oc1cccc(Cl)c1F)[C@H]1CCNC1 [Example 4-48, (S)-3-[(S)-1-(3-Chloro-2-fluorophenoxy)butyl]pyrrolidine] | ≤ 100 | ≤ 10 |
| CCC[C@@H](Oc1ccc(F)c(F)c1F)[C@H]1CCNC1 [Example 4-49, (S)-3-[(R)-1-(2,3,4-Trifluorophenoxy)butyl]pyrrolidine] | ≤ 10 | ≤ 100 |
| CCC[C@@H](Oc1ccc(Cl)c(Cl)c1F)[C@H]1CCNC1 [Example 4-51, (S)-3-[(R)-1-(3,4-Dichloro-2-fluorophenoxy)butyl]pyrrolidine] | ≤ 10 | ≤ 10 |
| CCC[C@H](Oc1ccc(Cl)c(Cl)c1F)[C@H]1CCNC1 [Example 4-52, (S)-3-[(S)-1-(3,4-Dichloro-2-fluorophenoxy)butyl]pyrrolidine] | ≤ 10 | ≤ 10 |

| Structure (SMILES) | IC50 [1] [nM] | IC50 [2] [nM] |
| --- | --- | --- |
| CCC[C@H](Oc1c(F)cc(Cl)cc1F)[C@H]1CCNC1 [Example 4-53, (S)-3-[(S)-1-(4-Chloro-2,6-difluorophenoxy)butyl]pyrrolidine] | ≤ 10 | ≤ 10 |
| CCC[C@@H](Oc1ccc(Cl)cc1C)[C@@H]1CCNC1 [Example 4-61, (R)-3-[(R)-1-(4-Chloro-2-methylphenoxy)butyl]pyrrolidine] | ≤ 100 | ≤ 100 |
| CCC[C@H](Oc1cccc(C)c1C)[C@H]1CCNC1 [Example 4-62, (S)-3-[(S)-1-(2,3-Dimethylphenoxy)butyl]pyrrolidine] | ≤ 10 | ≤ 10 |
| CCC[C@H](Oc1ccc(Cl)cc1OC)[C@H]1CCNC1 [Example 4-72, (S)-3-[(S)-1-(4-Chloro-2-methoxyphenoxy)butyl]pyrrolidine] | ≤ 10 | ≤ 10 |
| CC(C)[C@H](Oc1cccc(Cl)c1F)[C@H]1CCNC1 [Example 6-3, (S)-3-[(S)-1-(3-Chloro-2-fluorophenoxy)-2-methylpropyl]pyrrolidine] | ≤ 100 | ≤ 10 |
| CC(C)[C@@H](Oc1cccc(Cl)c1F)[C@H]1CCNC1 [Example 6-4, (S)-3-[(R)-1-(3-Chloro-2-fluorophenoxy)-2-methylpropyl]pyrrolidine] | ≤ 10 | ≤ 10 |
| CC(C)[C@H](Oc1c(F)cc(Cl)cc1F)[C@H]1CCNC1 [Example 6-5, (S)-3-[(S)-1-(4-Chloro-2,6-difluorophenoxy)-2-methylpropyl]pyrrolidine] | ≤ 10 | ≤ 10 |
| CC(C)[C@@H](Oc1c(F)cc(Cl)cc1F)[C@@H]1CCNC1 [Example 6-6, (R)-3-[(R)-1-(4-Chloro-2,6-difluorophenoxy)-2-methylpropyl]pyrrolidine] | ≤ 100 | ≤ 100 |
| CC(C)[C@@H](Oc1ccc(Cl)c(Cl)c1F)[C@H]1CCNC1 [Example 6-8, (S)-3-[(R)-1-(3,4-Dichloro-2-fluorophenoxy)-2-methylpropyl]pyrrolidine] | ≤ 10 | ≤ 100 |
| CC(C)[C@@H](Oc1ccc(Cl)c(Cl)c1F)[C@@H]1CCNC1 [Example 6-9, (R)-3-[(R)-1-(3,4-Dichloro-2-fluorophenoxy)-2-methylpropyl]pyrrolidine] | ≤ 10 | ≤ 100 |
| CC(C)[C@H](Oc1cccc(Cl)c1Cl)[C@@H]1CCNC1 [Example 6-16, (R)-3-[(S)-1-(2,3-Dichlorophenoxy)-2-methylpropyl]pyrrolidine] | ≤ 100 | ≤ 100 |
| CC(C)[C@H](Oc1cccc(F)c1Cl)[C@@H]1CCNC1 [Example 6-20, (R)-3-[(S)-1-(2-Chloro-3-fluorophenoxy)-2-methylpropyl]pyrrolidine] | ≤ 100 | ≤ 100 |
| CC(C)[C@@H](Oc1ccc(Cl)cc1Cl)[C@@H]1CCNC1 [Example 6-23, (R)-3-[(R)-1-(2,4-Dichlorophenoxy)-2-methylpropyl]pyrrolidine] | ≤ 10 | ≤ 100 |
| CC(C)[C@H](Oc1ccc(C(F)(F)F)cc1Cl)[C@H]1CCNC1 [Example 6-25, (S)-3-[(S)-1-(2-Chloro-4-trifluoromethylphenoxy)-2-methylpropyl]pyrrolidine] | ≤ 10 | ≤ 100 |
| CC(C)[C@@H](Oc1cc(Cl)ccc1Cl)[C@H]1CCNC1 [Example 6-26, (S)-3-[(R)-1-(2,5-Dichlorophenoxy)-2-methylpropyl]pyrrolidine] | ≤ 100 | ≤ 100 |
| CC(C)[C@@H](Oc1c(F)cc(Cl)cc1Cl)[C@H]1CCNC1 [Example 6-31, (S)-3-[(R)-1-(2,4-Dichloro-6-fluorophenoxy)-2-methylpropyl]pyrrolidine] | ≤ 10 | ≤ 100 |
| CC(C)[C@H](Oc1c(F)cc(Cl)cc1Cl)[C@@H]1CCNC1 [Example 6-32, (R)-3-[(S)-1-(2,4-Dichloro-6-fluorophenoxy)-2-methylpropyl]pyrrolidine] | ≤ 100 | ≤ 316 |
| Cc1cc(Cl)cc(Cl)c1O[C@@H](C(C)C)[C@H]1CCNC1 [Example 6-33, (S)-3-[(S)-1-(2,4-Dichloro-6-methylphenoxy)-2-methylpropyl]pyrrolidine] | ≤ 10 | ≤ 10 |
| COc1ccc(F)c(O[C@H](C(C)C)[C@@H]2CCNC2)c1Cl [Example 6-37, (R)-3-[(R)-1-(2-Chloro-6-fluoro-3-methoxyphenoxy)-2-methylpropyl]pyrrolidine] | ≤ 10 | ≤ 10 |
| Cc1c(Cl)cccc1O[C@H](C(C)C)[C@@H]1CCNC1 [Example 6-41, (R)-3-[(R)-1-(3-Chloro-2-methylphenoxy)-2-methylpropyl]pyrrolidine] | ≤ 10 | ≤ 100 |
| Cc1c(Cl)cccc1O[C@@H](C(C)C)[C@@H]1CCNC1 [Example 6-42, (R)-3-[(S)-1-(3-Chloro-2-methylphenoxy)-2-methylpropyl]pyrrolidine] | ≤ 10 | ≤ 100 |
| Cc1cc(Cl)ccc1O[C@H](C(C)C)[C@@H]1CCNC1 [Example 6-46, (R)-3-[(R)-1-(4-Chloro-2-methylphenoxy)-2-methylpropyl]pyrrolidine] | ≤ 100 | ≤ 100 |
